Reference: PMC3252747 (Bioorganic & medicinal chemistry letters, 2009)

Biological target: cloned h5-HT2A receptor (Homo sapiens, UniProt P28223)
Assay: 5-HT2A competitive radioligand binding assay
Conditions: ratio of H1 Ki to 5-HT2A Ki

cloned h5-HT2A receptor, sequence (P28223 whole entry): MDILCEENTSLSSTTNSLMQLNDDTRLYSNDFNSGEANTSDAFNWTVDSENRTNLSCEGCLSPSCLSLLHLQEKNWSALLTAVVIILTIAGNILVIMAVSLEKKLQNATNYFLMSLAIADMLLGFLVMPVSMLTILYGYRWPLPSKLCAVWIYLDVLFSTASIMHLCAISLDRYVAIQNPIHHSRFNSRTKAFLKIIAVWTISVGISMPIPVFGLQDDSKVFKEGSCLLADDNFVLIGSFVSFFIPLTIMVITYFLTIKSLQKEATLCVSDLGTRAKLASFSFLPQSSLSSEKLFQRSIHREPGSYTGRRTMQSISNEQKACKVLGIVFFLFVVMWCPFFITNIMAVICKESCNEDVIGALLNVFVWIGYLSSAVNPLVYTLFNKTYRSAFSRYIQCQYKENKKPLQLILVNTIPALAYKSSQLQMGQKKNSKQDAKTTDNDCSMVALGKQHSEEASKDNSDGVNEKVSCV

With `COc1ccc2c3c(ccc2c1)Cc1ccccc1C3CN` (stereo not shown) [Compound 2b, (7,12-dihydrotetraphene-3-methoxy-12-yl)methanamine] the “selectivity for 5-HT2A over the H1 receptor” value was 100 fold.
